One test relates to Pol I. Put plainly: Co-immunoprecipitation of Pol I with TIF-IA mutants from HEK293T cells. The format is binding, human. Here is the method:
(B) A mutant that mimics phosphorylation of TIF-IA at S199 fails to interact with Pol I and TIF-IB. FLAG-tagged wild-type TIF-IA or the indicated point mutants were overexpressed in HEK293T cells and immunoprecipitated from cell lysates with anti-FLAG antibodies (M2 agarose). Co-precipitated Pol I and TIF-IB/SL1 were visualized on Western blots with anti-RPA116 and anti-TAFI110 antibodies.
Immunoprecipitations were carried out from human cells overexpressing FLAG-tagged TIF-IA. Cells were lysed in IP buffer, cleared by centrifugation at 10,000×g for 30 min, and the supernatants were incubated for 4 hr at 4° C. with anti-FLAG (M2) agarose (Sigma). To analyze the interaction of TIF-IA with TIF-IB/SL1, the immunoprecipitates were washed with IP buffer and TIF-IB/SL1 was visualized on immunoblots with α-TAFI110 antibodies. To monitor the interaction of TIF-IA with Pol I, the immunoprecipitates were washed with IP buffer containing 600 mM NaCl and Pol I was analyzed on Western blots using antibodies against the second largest subunit of Pol I (RPA116) or PAF67 (Seither et al., J. Biol. Chem. 382 (2001), 1163-1170).
Given the importance of mTOR-mediated alterations in the phosphorylation pattern on TIF-IA activity, one could predict that either phosphorylation of S199, dephosphorylation of S44 or both regulate the interaction of TIF-IA with the Pol I transcription apparatus. It was therefore examined whether the S→A or S→D point mutant(s) were capable of interacting with Pol I and/or TIF-IB/SL1. For this, TIF-IA was precipitated from cells overexpressing either FLAG-tagged wild-type TIF-IA or the respective S199 and S44 mutant(s), and co-precipitated Pol I and TIF-IB/SL1 were visualized on Western blots.

The test system of a further test is Pol I transcription. In words: In vitro transcription: TIF-IA mutants added to nuclear extract from exponentially growing FM3A cells. The format is biochemical, murine. The note with it: 20 and 40 ng added to 15 ug nuclear extract.
The next test has as its system HEK293T cells. In words: Quantitative fluorimetric viability assay with calcein-AM. The following applies: 24, 36, 48 and 60 hr after transfection; 2 μM calcein-AM. The format is cell-based.

As for “TIF-IA: wild-type human transcription initiation factor TIF-IA, accession No. AJ272050”, the “interaction with Pol I (co-precipitated RPA116)” value in the test on Pol I is “interacted with both Pol I and TIF-IB/SL1”. Moreover, the “effect on transcriptional activity of extracts from exponentially growing cells” value in the test on Pol I transcription is “not stimulated by exogenous TIF-IA”. Besides, the “cellular growth rate by calcein-AM staining” value with HEK293T cells is “did not affect cell viability and growth”.
